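In this assay, cells in 96-well plates receive the compound at five concentrations for 48 hours. Endpoints are linearly interpolated between the surrounding concentrations. GI50 = concentration required for 50% inhibition of growth.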 Calls of active or inactive are those of the source. Rule as the data show it: active = GI50 up to about 1.1 µM and inactive = higher.
Legend:
Test in all cases: NCI tumour cell line growth inhibition, 48 h
HT-29 = test system: HT-29
OVCAR-3 = test system: OVCAR-3
HCC 2998 = test system: HCC 2998
HOP-62 = test system: HOP-62
A549 = test system: A549
PC-3 = test system: PC-3
UACC-62 = test system: UACC-62
LOX IMVI = test system: LOX IMVI
Hs-578T = test system: Hs-578T
CAKI-1 = test system: CAKI-1
UO-31 = test system: UO-31
SW-620 = test system: SW-620
786-0 = test system: 786-0
Malme-3M = test system: Malme-3M
T47D = test system: T47D
SK-MEL-2 = test system: SK-MEL-2
NCI-H522 = test system: NCI-H522
SNB-19 = test system: SNB-19
TK-10 = test system: TK-10
RPMI-8226 = test system: RPMI-8226

SMILES	GI50 (HT-29)	GI50 (OVCAR-3)	GI50 (HCC 2998)	GI50 (HOP-62)	GI50 (A549)	GI50 (PC-3)	GI50 (UACC-62)	GI50 (LOX IMVI)	GI50 (Hs-578T)	GI50 (CAKI-1)	GI50 (UO-31)	GI50 (SW-620)	GI50 (786-0)	GI50 (Malme-3M)	GI50 (T47D)	GI50 (SK-MEL-2)	GI50 (NCI-H522)	GI50 (SNB-19)	GI50 (TK-10)	GI50 (RPMI-8226)
O=C(OCc1ccccc1CN1CCOCC1)c1cccc(Br)c1	16 µM (inactive)	17.7 µM (inactive)	28.3 µM (inactive)	53.2 µM (inactive)	28.7 µM (inactive)	37.2 µM (inactive)	33.6 µM (inactive)	31.3 µM (inactive)	29.9 µM (inactive)	40.2 µM (inactive)	62.2 µM (inactive)	53.6 µM (inactive)	74.8 µM (inactive)	21.7 µM (inactive)	18.7 µM (inactive)	22.3 µM (inactive)	20.9 µM (inactive)	93.1 µM (inactive)	–	–
CCN(CC)CCNc1ccc2ncn3c4c(OC)cccc4c(=O)c1c23	4.04 µM (inactive)	0.863 µM (active)	4.94 µM (inactive)	6.67 µM (inactive)	4.12 µM (inactive)	3.97 µM (inactive)	6.68 µM (inactive)	–	11.6 µM (inactive)	4.89 µM (inactive)	4.38 µM (inactive)	1.08 µM (active)	4.83 µM (inactive)	6.76 µM (inactive)	7.66 µM (inactive)	–	4.4 µM (inactive)	6.15 µM (inactive)	12.2 µM (inactive)	–
O=C(Nc1ccc2nc(-c3ccccc3)cn2c1)Oc1ccccc1	43.1 µM (inactive)	38.6 µM (inactive)	25.2 µM (inactive)	> 100 µM (inactive)	55.5 µM (inactive)	> 100 µM (inactive)	37.9 µM (inactive)	52 µM (inactive)	> 100 µM (inactive)	97.9 µM (inactive)	> 100 µM (inactive)	48.6 µM (inactive)	91 µM (inactive)	98.2 µM (inactive)	19.1 µM (inactive)	46.7 µM (inactive)	20.2 µM (inactive)	73.6 µM (inactive)	53.7 µM (inactive)	–
COc1cccc2c1C(=O)c1ccc3cc(CO)cc(O)c3c1C2=O	0.813 µM (active)	0.169 µM (active)	–	2.09 µM (inactive)	0.624 µM (active)	0.215 µM (active)	0.279 µM (active)	1.8 µM (inactive)	3.7 µM (inactive)	2.72 µM (inactive)	0.982 µM (active)	0.19 µM (active)	0.619 µM (active)	0.046 µM (active)	1.72 µM (inactive)	0.798 µM (active)	0.865 µM (active)	1.79 µM (inactive)	3.01 µM (inactive)	0.74 µM (active)
CC(C)NC(=O)OCc1c(COC(=O)NC(C)C)n(C)c2c1ccc1cc(Cl)c(Cl)cc12	15.9 µM (inactive)	16.6 µM (inactive)	–	14.7 µM (inactive)	19.5 µM (inactive)	14.9 µM (inactive)	12 µM (inactive)	9.23 µM (inactive)	23.8 µM (inactive)	2.09 µM (inactive)	16.7 µM (inactive)	11.3 µM (inactive)	7.5 µM (inactive)	10.8 µM (inactive)	5.82 µM (inactive)	17.3 µM (inactive)	1.49 µM (inactive)	13.4 µM (inactive)	5.43 µM (inactive)	10.3 µM (inactive)
c1cc(-c2cnc(-c3ccc4c(c3)CCCO4)o2)ccn1	16.8 µM (inactive)	16.4 µM (inactive)	–	16.5 µM (inactive)	16.2 µM (inactive)	11.8 µM (inactive)	17.1 µM (inactive)	13.6 µM (inactive)	17.1 µM (inactive)	15.6 µM (inactive)	12.3 µM (inactive)	–	19.5 µM (inactive)	16.7 µM (inactive)	16.6 µM (inactive)	11.9 µM (inactive)	10 µM (inactive)	11.9 µM (inactive)	12.7 µM (inactive)	6.24 µM (inactive)
CCCCCCCCCCCCCCCCCC(=O)Nc1ccn(C2CCC(COP(=O)(O)O)O2)c(=O)n1 (stereo unspecified)	> 100 µM (inactive)	> 100 µM (inactive)	> 100 µM (inactive)	> 100 µM (inactive)	> 100 µM (inactive)	> 100 µM (inactive)	> 100 µM (inactive)	> 100 µM (inactive)	> 100 µM (inactive)	> 100 µM (inactive)	> 100 µM (inactive)	> 100 µM (inactive)	> 100 µM (inactive)	–	> 100 µM (inactive)	> 100 µM (inactive)	> 100 µM (inactive)	> 100 µM (inactive)	> 100 µM (inactive)	> 100 µM (inactive)
Cc1cc(Cl)ccc1OCC(=O)Nc1nc(N)nc(N)n1	> 100 µM (inactive)	> 100 µM (inactive)	–	> 100 µM (inactive)	> 100 µM (inactive)	> 100 µM (inactive)	> 100 µM (inactive)	> 100 µM (inactive)	> 100 µM (inactive)	> 100 µM (inactive)	40.7 µM (inactive)	> 100 µM (inactive)	> 100 µM (inactive)	> 100 µM (inactive)	> 100 µM (inactive)	> 100 µM (inactive)	> 100 µM (inactive)	> 100 µM (inactive)	> 100 µM (inactive)	> 100 µM (inactive)
COC(=O)c1ccc(/C=C2\Oc3ccccc3C2=O)cc1	> 100 µM (inactive)	> 100 µM (inactive)	> 100 µM (inactive)	> 100 µM (inactive)	> 100 µM (inactive)	> 100 µM (inactive)	> 100 µM (inactive)	–	> 100 µM (inactive)	41.2 µM (inactive)	> 100 µM (inactive)	> 100 µM (inactive)	> 100 µM (inactive)	–	> 100 µM (inactive)	–	32.1 µM (inactive)	> 100 µM (inactive)	> 100 µM (inactive)	> 100 µM (inactive)
NCCSC1(O)C(=O)c2ccccc2-c2ccccc21 (stereo unspecified)	1.21 µM (inactive)	< 0.01 µM (active)	–	1.53 µM (inactive)	0.719 µM (active)	1.25 µM (inactive)	1.64 µM (inactive)	0.256 µM (active)	1.41 µM (inactive)	–	1.47 µM (inactive)	1.52 µM (inactive)	1.63 µM (inactive)	1 µM (active)	2.1 µM (inactive)	1.61 µM (inactive)	1.55 µM (inactive)	1.53 µM (inactive)	1.73 µM (inactive)	0.0348 µM (active)
CCOC(=O)C1CCC/C1=N\NC(=N)N.Cc1cc(O)c(C(C)C)cc1S(=O)(=O)O (stereo unspecified)	> 100 µM (inactive)	> 100 µM (inactive)	> 100 µM (inactive)	> 100 µM (inactive)	> 100 µM (inactive)	> 100 µM (inactive)	> 100 µM (inactive)	> 100 µM (inactive)	> 100 µM (inactive)	–	> 100 µM (inactive)	> 100 µM (inactive)	> 100 µM (inactive)	> 100 µM (inactive)	> 100 µM (inactive)	> 100 µM (inactive)	> 100 µM (inactive)	> 100 µM (inactive)	> 100 µM (inactive)	> 100 µM (inactive)
C=CCn1c(-c2ccc(-c3cs/c(=N\N=O)n3CC=C)cc2)cs/c1=N\N=O	> 100 µM (inactive)	> 100 µM (inactive)	> 100 µM (inactive)	64.3 µM (inactive)	> 100 µM (inactive)	> 100 µM (inactive)	> 100 µM (inactive)	> 100 µM (inactive)	45.9 µM (inactive)	> 100 µM (inactive)	> 100 µM (inactive)	> 100 µM (inactive)	62.5 µM (inactive)	> 100 µM (inactive)	> 100 µM (inactive)	> 100 µM (inactive)	83.2 µM (inactive)	> 100 µM (inactive)	> 100 µM (inactive)	–
O=C1/C(=C\c2ccc([N+](=O)[O-])cc2)N(S(=O)(=O)c2ccccc2)c2ncccc21	16.6 µM (inactive)	12.2 µM (inactive)	–	18.7 µM (inactive)	40.2 µM (inactive)	14 µM (inactive)	9.23 µM (inactive)	19.5 µM (inactive)	31.2 µM (inactive)	8.18 µM (inactive)	19.3 µM (inactive)	14.9 µM (inactive)	16.5 µM (inactive)	18.2 µM (inactive)	13.4 µM (inactive)	–	18.3 µM (inactive)	24.5 µM (inactive)	17.5 µM (inactive)	5.43 µM (inactive)
COc1ccc(C(C)NNC(=O)c2ccncc2)cc1OC (stereo unspecified)	> 100 µM (inactive)	> 100 µM (inactive)	> 100 µM (inactive)	> 100 µM (inactive)	> 100 µM (inactive)	> 100 µM (inactive)	> 100 µM (inactive)	> 100 µM (inactive)	> 100 µM (inactive)	> 100 µM (inactive)	> 100 µM (inactive)	> 100 µM (inactive)	> 100 µM (inactive)	> 100 µM (inactive)	> 100 µM (inactive)	> 100 µM (inactive)	–	> 100 µM (inactive)	> 100 µM (inactive)	> 100 µM (inactive)
CCCCCCCCCCCCc1ccsc1-c1ccc(-c2ccc(-c3sc(-c4cc(CCCCCCCCCCCC)c(-c5ccc(-c6ccc(-c7sccc7CCCCCCCCCCCC)s6)s5)s4)cc3CCCCCCCCCCCC)s2)s1	> 100 µM (inactive)	> 100 µM (inactive)	> 100 µM (inactive)	> 100 µM (inactive)	> 100 µM (inactive)	> 100 µM (inactive)	> 100 µM (inactive)	–	> 100 µM (inactive)	> 100 µM (inactive)	> 100 µM (inactive)	> 100 µM (inactive)	> 100 µM (inactive)	–	> 100 µM (inactive)	> 100 µM (inactive)	> 100 µM (inactive)	> 100 µM (inactive)	> 100 µM (inactive)	> 100 µM (inactive)
